In brackets after ≈: the same amount, converted by molar mass. Where two headings read alike, the source gives them in different places.
System: E. coli D31
Assay: MIC, control bacteria (Example 8)
Type: cell-based
Procedure: • Mueller-Hinton Broth in tubes was inoculated with 25 ocular isolates of Staphylococcus aureus fluoroquinolone-susceptible, Staphylococcus aureus fluoroquinolone-resistant, Staphylococcus epidermidis (Coagulase-negative Staphylococcus) fluoroquinolone-susceptible, Staphylococcus epidermidis (Coagulase-negative Staphylococcus) fluoroquinolone-resistant, Pseudomonas aeruginosa and Serratia marcescens, plus two controls (Staphylococcus aureus and E. coli) and incubated at 37° C. overnight on a shaker set at 250 rpm.
Control Bacteria—The two control bacteria (Staphylococcus aureus and E. coli) were treated as above.
Control Bacteria Set #1—this set of control bacteria were treated as the Streptococcus pneumoniae, Streptococcus viridans and Moraxella species (including Moraxella catarrhalis) test isolates above; the control bacteria underwent the same conditions as the test Streptococcus pneumoniae, Streptococcus viridans and Moraxella species (including Moraxella catarrhalis) isolates. This set of control bacteria was to determine whether there was a difference in the MICs by performing the MIC determinations in 2% lysed horse red blood cells with the standard method performed in Mueller-Hinton broth.
Control Bacteria Set #2—the control bacteria were added to 5 ml of Mueller-Hinton Broth without the 2% lysed horse red blood cells to achieve the standard inoculum concentration. This set of control bacteria is the normal control to determine whether the compounds are at the target MICs.
Control Bacteria Set #1—this set of control bacteria were treated as the Haemophilus influenzae test isolates above; the control bacteria underwent the same conditions as the test Haemophilus influenzae isolates. This set of control bacteria is to determine whether there was a difference in the MICs by performing the MIC determinations in HTM broth with the standard method performed in Mueller-Hinton broth.
Control Bacteria Set #2—the control bacteria were added to 5 ml of Mueller-Hinton Broth to achieve the standard inoculum concentration. This set of control bacteria is the normal control to determine whether the compounds are at the target MICs.
Ninety μl of the bacterial suspensions was dispensed in each well from column 1 to column 12. Each bacterial isolate was placed in one row of a 96 well polypropylene plate containing the test agents. The plates were placed on shaker at 15 minutes at room temperature, and then incubated at 37° C. overnight. MICs were determined visually as the lowest concentration of drug that inhibits visible bacterial growth.

`N=C(N)NCCCCC(=O)Nc1cc(C(F)(F)F)cc(NC(=O)c2cc(C(=O)Nc3cc(C(F)(F)F)cc(NC(=O)CCCCNC(=N)N)c3O[C@@H]3CCNC3)ncn2)c1O[C@@H]1CCNC1` [Oligomer 4] was tested, and the “Decrease of activity by addition of 2% lysed horse red blood cells to Mueller-Hinton broth” value (Control Bacteria E. coli D31) was “approximately 4 fold”, the “Decrease of activity by use of HTM broth” value (Control Bacteria E. coli D31) was “approximately 8 fold” and the MIC (Control Bacteria Set #1, run with Haemophilus influenzae MIC test, read-out: MIC) was 8 mg/L (≈ 8.54 µM). It also gave an MIC (E. coli D31, Control for MIC Test SA-FQR, first batch) of 1 mg/L (≈ 1.07 µM), an MIC (E. coli D31, Control for MIC Test SA-FQS, first batch) of 1 mg/L (≈ 1.07 µM) and an MIC (E. coli D31, new batches, Control Only 1) of 1 mg/L (≈ 1.07 µM). The MIC (E. coli D31, new batches, Control Only 2) was 1 mg/L (≈ 1.07 µM), the MIC (E. coli D31, new batches, Control Only 3) was 1 mg/L (≈ 1.07 µM) and the MIC (E. coli D31, new batches, Control Only 4) was 1 mg/L (≈ 1.07 µM). For the same molecule, the MIC (E. coli Lab Strain D31) was 0.78 mg/L (≈ 0.833 µM), the MIC (Escherichia coli, D31, Control Bacteria Set #1, run with Moraxella MIC test, read-out: MIC) was 4 mg/L (≈ 4.27 µM) and the MIC (Escherichia coli, D31, Control Only 1, read-out: MIC of control bacteria on day of MIC testing) was 1 mg/L. It also gave an MIC (Escherichia coli, D31, Control Only 2, read-out: MIC of control bacteria on day of MIC testing) of 1 mg/L, an MIC (Escherichia coli, D31, Control Only 3, read-out: MIC of control bacteria on day of MIC testing) of 1 mg/L and an MIC (Escherichia coli, D31, Control Only 4, read-out: MIC of control bacteria on day of MIC testing) of 1 mg/L. The MIC (Escherichia coli, D31, E. coli D31, Control Bacteria Set #1 (same conditions as test isolates), run with Streptococcus pneumoniae MIC test, read-out: MIC) was 2 mg/L (≈ 2.13 µM), the MIC (Escherichia coli, D31, E. coli D31, Control Bacteria Set #1 (same conditions as test isolates), run with Streptococcus viridans group MIC test, read-out: MIC) was 2 mg/L (≈ 2.13 µM) and the MIC (Escherichia coli, D31, E. coli D31, Control Bacteria Set #2 (Mueller-Hinton Broth), run with Streptococcus pneumoniae MIC test, read-out: MIC) was 0.5 mg/L (≈ 0.534 µM). It also gave an MIC (Escherichia coli, D31, E. coli D31, Control Bacteria Set #2 (Mueller-Hinton Broth), run with Streptococcus viridans group MIC test, read-out: MIC) of 0.5 mg/L (≈ 0.534 µM), an MIC (Escherichia coli, D31, E. coli D31, control bacteria run with Pseudomonas aeruginosa MIC test, read-out: MIC) of 0.5 mg/L (≈ 0.534 µM) and an MIC (Escherichia coli, D31, E. coli D31, control bacteria run with S. aureus fluoroquinolone-resistant MIC test, read-out: MIC) of 1 mg/L (≈ 1.07 µM). It also gave an MIC (Escherichia coli, D31, E. coli D31, control bacteria run with S. aureus fluoroquinolone-susceptible MIC test, read-out: MIC) of 1 mg/L (≈ 1.07 µM), an MIC (Escherichia coli, D31, E. coli D31, control bacteria run with S. epidermidis fluoroquinolone-resistant MIC test, read-out: MIC) of 1 mg/L (≈ 1.07 µM) and an MIC (Escherichia coli, D31, E. coli D31, control bacteria run with S. epidermidis fluoroquinolone-susceptible MIC test, read-out: MIC) of 1 mg/L (≈ 1.07 µM). It also gave an MIC (Escherichia coli, D31, E. coli D31, control bacteria run with Serratia marcescens MIC test, read-out: MIC) of 0.5 mg/L (≈ 0.534 µM), an MIC (Escherichia coli, D31, E. coli D31, MIC previously obtained (target MIC), printed in parentheses, read-out: MIC for Control Bacteria within the parentheses) of 0.78 mg/L (≈ 0.833 µM) and an MIC (Escherichia coli, D31, E. coli D31, read-out: MIC) of 0.78 mg/L (≈ 0.833 µM). It also gave an MIC (Escherichia coli, D31, control for MIC test HI (Control Bacteria Set #2), read-out: MIC of control bacteria on day of MIC testing) of 1 mg/L, an MIC (Escherichia coli, D31, control for MIC test MS (Control Bacteria Set #2), read-out: MIC of control bacteria on day of MIC testing) of 1 mg/L and an MIC (Escherichia coli, D31, control for MIC test PA, read-out: MIC of control bacteria on day of MIC testing) of 0.5 mg/L. It also gave an MIC (Escherichia coli, D31, control for MIC test SA-FQR, read-out: MIC of control bacteria on day of MIC testing) of 1 mg/L, an MIC (Escherichia coli, D31, control for MIC test SA-FQS, read-out: MIC of control bacteria on day of MIC testing) of 1 mg/L and an MIC (Escherichia coli, D31, control for MIC test SE-FQR, read-out: MIC of control bacteria on day of MIC testing) of 1 mg/L. It also gave an MIC (Escherichia coli, D31, control for MIC test SE-FQS, read-out: MIC of control bacteria on day of MIC testing) of 1 mg/L, an MIC (Escherichia coli, D31, control for MIC test SM, read-out: MIC of control bacteria on day of MIC testing) of 0.5 mg/L and an MIC (Escherichia coli, D31, control for MIC test SP, read-out: MIC of control bacteria on day of MIC testing) of 0.5 mg/L. For the same molecule, the MIC (Escherichia coli, D31, control for MIC test SV, read-out: MIC of control bacteria on day of MIC testing) was 0.5 mg/L and the MIC (Escherichia coli, D31, reference MIC printed in parentheses beside the day's control value, read-out: MIC for Control Bacteria (within the parentheses)) was 0.78 mg/L (≈ 0.833 µM).

Reference: patent US20130065818A1, “Arylamide Compounds And Compositions And Uses Thereof” (POLYMEDIX, priority 2006, published 2013)
